US11122826B2, “Organic compounds” (GIVAUDAN S.A., priority 2013, dated 2021)

Test: Taste evaluation by a panel of experienced tasters in Kikkoman low salt soy sauce
Conditions: 0.25 ppm dosed to Kikkoman low salt soy sauce (1 g salt/100 ml)
Protocol: Blanco Verdunde Kikkoman low Salt 1 g Salt/100 ml
The samples were evaluated by a panel of experienced tasters.

SMILES	taste of the sample as agreed by the panel
CCCCCCCC/C=C\CCCCCCCC(=O)NC(C)(C)C(=O)O [2-methyl-2-oleamidopropanoic acid, 2-methyl-2-oleamidopropanoic Acid]	cleaner, more upfront body, salty, less fermented, more upfront, more salty bitter and sweet, fermented
CCCCCCCCCCCCCCCCCC(=O)NC(C)(C)C(=O)O [2-methyl-2-stearamidopropanoic acid, 2-methyl-2-stearamidopropanoic Acid]	salty upfront, no aftertaste expanding, bitter aftertaste not negative, more upfront salty, not as bitter and sweet, fermented
CCCCCCCCCCCCCCCC(=O)NC(C)(C)C(=O)O [2-methyl-2-palmitamidopropanoic acid, 2-methyl-2-palmitamidopropanoic Acid]	strong salty, more upfront, fermented, slightly bitter and sweet
